# Test system: RAW264.7
# Test: Antiinflammatory activity in mouse RAW264.7 cells assessed as inhibition of LPS-induced nitric oxide production after 24 hrs by Griess assay
# Type: functional, cell-based
# Conditions: RAW264.7, 24 h
row,IC50,SMILES
1,2260 nM,CO[C@]1(c2cc(O)cc(O)c2)C=C(CC/C=C(\CO)CC/C=C(\C)COC(=O)/C=C/c2ccc(O)cc2)C(=O)O1
2,1150 nM,C/C(=C\CC/C(=C/CCC1=C[C@@H](c2cc(O)ccc2O)OC1=O)CO)COC(=O)/C=C/c1ccc(O)cc1
3,58800 nM,C[C@]12CCC(=O)C=C1CC[C@@H]1[C@@H]2[C@@H](O)C[C@@]2(C)[C@H]1CC[C@]2(O)C(=O)CO [HYDROCORTISONE]
4,1420 nM,C/C(=C\CC/C(=C/CCC1=C[C@H](c2cc(O)ccc2O)OC1=O)CO)COC(=O)/C=C/c1ccc(O)cc1
5,1510 nM,CO[C@@]1(c2cc(O)cc(O)c2)C=C(CC/C=C(\CO)CC/C=C(\C)COC(=O)/C=C/c2ccc(O)cc2)C(=O)O1

# From ChEMBL document CHEMBL3813604, “Two pairs of farnesyl phenolic enantiomers as natural nitric oxide inhibitors from Ganoderma sinense” (Bioorg Med Chem Lett, 2016)
